Laboratory results: paper PMC12028158, “Synthesis and In Vitro Evaluation of the Anticancer Effect of Novel Phosphonium Vindoline Derivatives” (International Journal of Molecular Sciences, 2025)

Tests used:
Type in all cases: cell-based
SR [1] = assay: NCI60 five-dose screen; details: Homo sapiens
HOP-62 [2] = assay: NCI60 five-dose screen; details: Homo sapiens, HOP-62
NCI-H23 = assay: NCI60 five-dose screen; details: Homo sapiens, NCI-H23
HT29 = assay: NCI60 five-dose screen; details: Homo sapiens, HT-29
SW-620 = assay: NCI60 five-dose screen; details: Homo sapiens, SW-620
SF-295 [3] = assay: NCI60 five-dose screen; details: Homo sapiens, SF-295
LOX IMVI = assay: NCI60 five-dose screen; details: Homo sapiens
SK-MEL-5 = assay: NCI60 five-dose screen; details: Homo sapiens, SK-MEL-5
OVCAR-3 = assay: NCI60 five-dose screen; details: Homo sapiens, OVCAR-3
786-0 = assay: NCI60 five-dose screen; details: Homo sapiens, 786-0
PC-3 = assay: NCI60 five-dose screen; details: Homo sapiens, PC-3
DU-145 = assay: NCI60 five-dose screen; details: Homo sapiens, DU-145
T-47D = assay: NCI60 five-dose screen; details: Homo sapiens, T47D
MDA-MB-468 = assay: NCI60 five-dose screen; details: Homo sapiens, MDA-MB-468
[4] = tested on: 60 human tumor cell lines (NCI60); assay: NCI60 five-dose screen, overall mean; details: 60 cell, read-out: Mean GI50, mean over all 60 cell lines
HL-60(TB) = assay: NCI60 one-dose screen; details: Homo sapiens, HL-60, read-out: Growth percent
K-562 = assay: NCI60 one-dose screen; details: Homo sapiens, K562, read-out: Growth percent
MOLT-4 = assay: NCI60 one-dose screen; details: Homo sapiens, MOLT-4, read-out: Growth percent
SR [5] = assay: NCI60 one-dose screen; details: Homo sapiens, read-out: Growth percent
A549/ATCC = assay: NCI60 one-dose screen; details: Homo sapiens, A549, read-out: Growth percent
HOP-62 [6] = assay: NCI60 one-dose screen; details: Homo sapiens, HOP-62, read-out: Growth percent
NCI-H322M = assay: NCI60 one-dose screen; details: Homo sapiens, read-out: Growth percent
HCT-116 = assay: NCI60 one-dose screen; details: Homo sapiens, HCT-116, read-out: Growth percent
KM12 = assay: NCI60 one-dose screen; details: Homo sapiens, KM12, read-out: Growth percent
SF-268 = assay: NCI60 one-dose screen; details: Homo sapiens, SF-268, read-out: Growth percent
SF-295 [7] = assay: NCI60 one-dose screen; details: Homo sapiens, SF-295, read-out: Growth percent
SNB-19 = assay: NCI60 one-dose screen; details: Homo sapiens, SNB-19, read-out: Growth percent
M14 = assay: NCI60 one-dose screen; details: Homo sapiens, M14, read-out: Growth percent
MDA-MB-435 = assay: NCI60 one-dose screen; details: Homo sapiens, MDA-MB-435, read-out: Growth percent
SK-MEL-28 = assay: NCI60 one-dose screen; details: Homo sapiens, SK-MEL-28, read-out: Growth percent
A498 = assay: NCI60 one-dose screen; details: Homo sapiens, A498, read-out: Growth percent
ACHN = assay: NCI60 one-dose screen; details: Homo sapiens, read-out: Growth percent
UO-31 = assay: NCI60 one-dose screen; details: Homo sapiens, UO-31, read-out: Growth percent
HS 578T = assay: NCI60 one-dose screen; details: Homo sapiens, Hs-578T, read-out: Growth percent

Compound	GI50 (SR [1]) [µM]	GI50 (HOP-62 [2]) [µM]	activity at 10 µM (HL-60(TB)) [%]	activity at 10 µM (K-562) [%]	activity at 10 µM (MOLT-4) [%]	activity at 10 µM (A549/ATCC) [%]	activity at 10 µM (HOP-62 [6]) [%]	activity at 10 µM (NCI-H322M) [%]	activity at 10 µM (HCT-116) [%]	activity at 10 µM (KM12) [%]	activity at 10 µM (SF-268) [%]	activity at 10 µM (SF-295 [7]) [%]	activity at 10 µM (SNB-19) [%]	activity at 10 µM (M14) [%]	activity at 10 µM (MDA-MB-435) [%]	activity at 10 µM (SK-MEL-28) [%]	activity at 10 µM (A498) [%]	activity at 10 µM (ACHN) [%]	activity at 10 µM (UO-31) [%]	activity at 10 µM (HS 578T) [%]	also measured
CC[C@]12C=CCN3CC[C@@]4(c5ccc(OC)cc5N(C)[C@H]4[C@@](O)(C(=O)OC)[C@@H]1OC(=O)CCC[P+](c1ccc(F)cc1)(c1ccc(F)cc1)c1ccc(F)cc1)[C@@H]32 [9c]	7.45	20.5	-22.9	21.6	37.1	54.5	64	65.2	32.2	21.3	42.3	85	13.8	21.4	6.69	-24.1	101	101	81.5	19.1	GI50 (NCI-H23): 15.8 µM; GI50 (HT29): 12.5 µM; GI50 (SW-620): 18.3 µM; GI50 (SF-295 [3]): > 48.5 µM; GI50 (LOX IMVI): 16.6 µM; GI50 (SK-MEL-5): 8.26 µM; GI50 (OVCAR-3): 6.47 µM; GI50 (786-0): > 48.5 µM; GI50 (PC-3): 12.6 µM; GI50 (DU-145): 23.7 µM; GI50 (T-47D): 10.5 µM; GI50 (MDA-MB-468): 1.5 µM; GI50 [4]: 17 µM; activity at 10 µM (SR [5]): 42.6%
CC[C@]12C=CCN3CC[C@@]4(c5ccc(OC)cc5N(C)[C@H]4[C@@](O)(C(=O)OC)[C@@H]1OC(=O)CCC[P+](C1CCCCC1)(C1CCCCC1)C1CCCCC1)[C@@H]32 [9d]	1.35	3.68	-37.1	3.31	2.35	14.1	4.26	24.5	0.16	-63.4	-54.1	-13.6	-60	-78	-80.1	-85.9	21.8	32	76.8	-33	GI50 (NCI-H23): 2.31 µM; GI50 (HT29): 1.88 µM; GI50 (SW-620): 2.95 µM; GI50 (SF-295 [3]): 4.41 µM; GI50 (LOX IMVI): 2.88 µM; GI50 (SK-MEL-5): 1.76 µM; GI50 (OVCAR-3): 1.74 µM; GI50 (786-0): 4.45 µM; GI50 (PC-3): 1.71 µM; GI50 (DU-145): 3.75 µM; GI50 (T-47D): 1.32 µM; GI50 (MDA-MB-468): 0.313 µM; GI50 [4]: 3.8 µM; activity at 10 µM (SR [5]): 29.1%
CCC12C=CCN3CC[C@@]4(c5ccc(OC)cc5N(C)[C@H]4[C@@](O)(C(=O)OC)[C@@H]1OC(C)=O)[C@@H]32 (some centres unmarked) [compound 2, vindoline]			104	103	103	93.5	92.2	97.8	104	102	100	99.5	96.6	104	105	106	99.6	101	83.9	113	
